Source: ChEMBL document CHEMBL4229436, “Synthesis and biological evaluation of Complex I inhibitor R419 and its derivatives as anticancer agents in HepG2 cells” (Bioorg Med Chem Lett, 2018)
Calls of active or inactive are those of the source. No cut-off for these calls is given here.

Legend:
HepG2 [1] = test: Cytotoxicity against human HepG2 cells after 72 hrs by MTT assay; type: functional, cell-based; conditions: HepG2, 72 h
L02 = test: Cytotoxicity against human L02 cells after 72 hrs by MTT assay; type: cell-based; conditions: L02, 72 h
A549 = test: Cytotoxicity against human A549 cells after 72 hrs by MTT assay; type: functional, cell-based; conditions: A549, 72 h
HepG2 [2] = test: Induction of apoptosis in human HepG2 cells assessed as live cells at 0.3 uM after 40 hrs by Annexin-V-FITC/propidium iodide staining based flow cytometry (reference value: 82.6%); type: functional
HepG2 [3] = test: Induction of apoptosis in human HepG2 cells assessed as early apoptotic cells at 0.3 uM after 40 hrs by Annexin-V-FITC/propidium iodide staining based flow cytometry (reference value: 2.8%); type: functional
HepG2 [4] = test: Induction of apoptosis in human HepG2 cells assessed as late apoptotic cells at 0.3 uM after 40 hrs by Annexin-V-FITC/propidium iodide staining based flow cytometry (reference value: 7.6%); type: functional
HepG2 [5] = test: Induction of apoptosis in human HepG2 cells assessed as necrotic cells at 0.3 uM after 40 hrs by Annexin-V-FITC/propidium iodide staining based flow cytometry (reference value: 7%); type: functional
HepG2 [6] = test: Induction of apoptosis in human HepG2 cells assessed as live cells at 3 uM after 40 hrs by Annexin-V-FITC/propidium iodide staining based flow cytometry (reference value: 82.6%); type: functional
HepG2 [7] = test: Induction of apoptosis in human HepG2 cells assessed as early apoptotic cells at 3 uM after 40 hrs by Annexin-V-FITC/propidium iodide staining based flow cytometry (reference value: 2.8%); type: functional
HepG2 [8] = test: Induction of apoptosis in human HepG2 cells assessed as late apoptotic cells at 3 uM after 40 hrs by Annexin-V-FITC/propidium iodide staining based flow cytometry (reference value: 7.6%); type: functional
HepG2 [9] = test: Induction of apoptosis in human HepG2 cells assessed as necrotic cells at 3 uM after 40 hrs by Annexin-V-FITC/propidium iodide staining based flow cytometry (reference value: 7%); type: functional
HepG2 [10] = test: Induction of apoptosis in human HepG2 cells assessed as caspase-3 cleavage at 0.1 to 30 uM after 24 hrs by Western blot analysis; type: functional, cell-based
HepG2 [11] = test: Induction of apoptosis in human HepG2 cells assessed as PARP cleavage at 0.1 to 30 uM after 24 hrs by Western blot analysis; type: functional, cell-based
HepG2 [12] = test: Induction of intracellular ATP depletion in human HepG2 cells at 3 uM after 44 hrs by luminescence based spectrophotometric method; type: functional, cell-based
HepG2 [13] = test: Induction of intracellular ATP depletion in human HepG2 cells at 0.3 uM after 44 hrs by luminescence based spectrophotometric method; type: functional, cell-based
[14] = target: AMP-activated protein kinase, AMPK (Homo sapiens) (UniProt P54646+O43741+P54619+Q9UGJ0+Q9Y478+Q13131+Q9UGI9); test: Activation of AMPK in human HepG2 cells after 24 hrs by Western blot analysis; type: cell-based
HepG2 [15] = test: Reduction in Bcl2 to bax ratio in human HepG2 cells at 0.1 to 30 uM after 24 hrs by Western blot analysis; type: functional, cell-based
Homo sapiens [16] = species on record: Homo sapiens; test: Inhibition of NADH-ubiquinone oxidoreductase (unknown origin)
Homo sapiens [17] = species on record: Homo sapiens; test: Inhibition of NADH-ubiquinone oxidoreductase (unknown origin) at 50 uM

N#Cc1ccc(CN2CCC(NC(=O)COc3ccc(-c4cc(=O)c5ccccc5o4)cc3)CC2)cc1
IC50 (HepG2 [1]): 6.7 µM

O=C(COc1ccc(-c2cc(=O)c3ccccc3o2)cc1)NC1CCN(C(=O)c2ccccc2)CC1
IC50 (HepG2 [1]): > 20 µM

O=C(COc1ccc2c(=O)cc(-c3ccccc3)oc2c1)N1CCN(Cc2ccccc2)CC1
IC50 (HepG2 [1]): > 20 µM

CC(C)(Oc1ccc2c(=O)cc(-c3ccccc3)oc2c1)C(=O)NC1CCN(Cc2ccc(C(F)(F)F)cc2)CC1
IC50 (HepG2 [1]): > 20 µM

COc1ccc(CN2CCC(NC(=O)COc3ccc(-c4cc(=O)c5ccccc5o4)cc3)CC2)cc1
IC50 (HepG2 [1]): 6.8 µM

CC(C)(Oc1ccc(-c2cc(=O)c3ccccc3o2)cc1)C(=O)NC1CCN(Cc2ccccc2)CC1
IC50 (HepG2 [1]): > 20 µM

O=C(COc1ccc2c(=O)c(-c3ccccc3)coc2c1)N1CCN(Cc2ccccc2)CC1
IC50 (HepG2 [1]): > 20 µM

O=C(COc1ccc2c(=O)cc(-c3ccccc3)oc2c1)NC1CCN(C(=O)c2ccccc2)CC1
IC50 (HepG2 [1]): > 20 µM

COc1ccc(CN2CCC(NC(=O)C(C)(C)Oc3ccc(-c4cc(=O)c5ccccc5o4)cc3)CC2)cc1
IC50 (HepG2 [1]): 2.8 µM | IC50 (L02): 17.6 µM | IC50 (A549): 40 µM | Activity (HepG2 [2]): 80.2% | Activity (HepG2 [3]): 1.6% | Activity (HepG2 [4]): 7.3% | Activity (HepG2 [5]): 11% | Activity (HepG2 [6]): 53.4% | Activity (HepG2 [7]): 0% | Activity (HepG2 [8]): 0.2% | Activity (HepG2 [9]): 46.4% | Activity (HepG2 [10]): inactive | Activity (HepG2 [11]): inactive | Activity (HepG2 [12]): Active | Activity (HepG2 [13]): inactive | Activity [14]: Dose-dependent effect | Activity (HepG2 [15]): Active | inhibition (Homo sapiens [16]): Dose-dependent effect | inhibition (Homo sapiens [17]): Active

CC(C)(Oc1ccc2c(=O)c(-c3ccccc3)coc2c1)C(=O)NC1CCN(Cc2ccccc2)CC1
IC50 (HepG2 [1]): > 20 µM

N#Cc1ccc(CN2CCC(NC(=O)COc3ccc4c(=O)cc(-c5ccccc5)oc4c3)CC2)cc1
IC50 (HepG2 [1]): 9.3 µM

COc1ccc(CN2CCC(NC(=O)C(C)(C)Oc3ccc4c(=O)cc(-c5ccccc5)oc4c3)CC2)cc1
IC50 (HepG2 [1]): 8.7 µM

O=C(COc1ccc2c(=O)c(-c3ccccc3)coc2c1)NC1CCN(Cc2ccccc2)CC1
IC50 (HepG2 [1]): > 20 µM

N#Cc1ccc(CN2CCC(NC(=O)COc3ccc4c(=O)c(-c5ccccc5)coc4c3)CC2)cc1
IC50 (HepG2 [1]): > 20 µM

O=C(COc1ccc2c(=O)cc(-c3ccccc3)oc2c1)NC1CCN(Cc2ccccc2)CC1
IC50 (HepG2 [1]): 16.7 µM

COc1ccc(CN2CCC(NC(=O)COc3ccc4c(=O)c(-c5ccccc5)coc4c3)CC2)cc1
IC50 (HepG2 [1]): > 20 µM

CC(C)(Oc1ccc2c(=O)cc(-c3ccccc3)oc2c1)C(=O)NC1CCN(Cc2ccccc2)CC1
IC50 (HepG2 [1]): 14 µM

O=C(COc1ccc2c(=O)cc(-c3ccccc3)oc2c1)NC1CCN(Cc2ccc(C(F)(F)F)cc2)CC1
IC50 (HepG2 [1]): 7.2 µM

O=C(COc1ccc(-c2cc(=O)c3ccccc3o2)cc1)NC1CCN(Cc2ccccc2)CC1
IC50 (HepG2 [1]): 15.5 µM

O=C(COc1ccc(-c2cc(=O)c3ccccc3o2)cc1)N1CCN(Cc2ccccc2)CC1
IC50 (HepG2 [1]): > 20 µM

COc1ccc(C(=O)C2CCN(C(=O)c3ccc(C(=O)NC4CCN(Cc5ccc(C#N)cc5)CC4)cn3)CC2)cc1
IC50 (HepG2 [1]): 5.2 µM | IC50 (L02): 25.9 µM | IC50 (A549): 19.5 µM | Activity [14]: Active | inhibition (Homo sapiens [16]): Dose-dependent effect
